Reference: PubChem BioAssay AID1919013 (Molecular Pharmacology Branch, DTP, NCI, 2023)
pIC50: −log10 of the molar value.

System: LG0703-F498-PDC complex spheroid growth
Experiment: Anticancer human tumor LG0703-F498-PDC patient-derived lung adenocarcinoma cell line growth inhibition [AhR]
Settings: for pIC50: curve of first compound; for viability, T/C: stronger effect = lower value
Method in brief: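 Complex tumor spheroids co-cultured with HUVEC and human MSC stroma; AhR antagonists tested in combination with standard-of-care and investigational agents. Top concentration at or near clinical Cmax (else 10 microM), half-log dilutions; growth expressed as percent test/control.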

[1] = second compound 0.1 µM, first compound 0.0316 µM
[2] = second compound 0.1 µM, first compound 0.1 µM
[3] = second compound 0.1 µM, first compound 0.316 µM
[4] = second compound 0.1 µM, first compound 1 µM
[5] = second compound 0.1 µM, first compound 3.16 µM
[6] = second compound 0.1 µM, first compound 10 µM
[7] = second compound 0.316 µM, first compound 0.0316 µM
[8] = second compound 0.316 µM, first compound 0.1 µM
[9] = second compound 0.316 µM, first compound 0.316 µM
[10] = second compound 0.316 µM, first compound 1 µM
[11] = second compound 0.316 µM, first compound 3.16 µM
[12] = second compound 0.316 µM, first compound 10 µM
[13] = second compound 1 µM, first compound 0.0316 µM
[14] = second compound 1 µM, first compound 0.1 µM
[15] = second compound 1 µM, first compound 0.316 µM
[16] = second compound 1 µM, first compound 1 µM
[17] = second compound 1 µM, first compound 3.16 µM
[18] = second compound 1 µM, first compound 10 µM
[19] = second compound 3.16 µM, first compound 0.0316 µM
[20] = second compound 3.16 µM, first compound 0.1 µM
[21] = second compound 3.16 µM, first compound 0.316 µM
[22] = second compound 3.16 µM, first compound 1 µM
[23] = second compound 3.16 µM, first compound 3.16 µM
[24] = second compound 3.16 µM, first compound 10 µM
[25] = second compound 10 µM, first compound 0.0316 µM
[26] = second compound 10 µM, first compound 0.1 µM
[27] = second compound 10 µM, first compound 0.316 µM
[28] = second compound 10 µM, first compound 1 µM
[29] = second compound 10 µM, first compound 3.16 µM
[30] = second compound 10 µM, first compound 10 µM
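Note: luminescence taken as a proxy for viable cell amount.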
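Throughout, for viability, T/C: percent of DMSO vehicle control where 100% means growth equal to vehicle.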

| SMILES | pIC50 (second compound 0.1 µM) | pIC50 (second compound 0.316 µM) | pIC50 (second compound 1 µM) | pIC50 (second compound 3.16 µM) | pIC50 (second compound 10 µM) | viability, T/C [1] | viability, T/C [2] | viability, T/C [3] | viability, T/C [4] | viability, T/C [5] | viability, T/C [6] | viability, T/C [7] | viability, T/C [8] | viability, T/C [9] | viability, T/C [13] | viability, T/C [14] | viability, T/C [19] | viability, T/C [20] | viability, T/C [25] | viability, T/C [26] | other results |
| --- | --- | --- | --- | --- | --- | --- | --- | --- | --- | --- | --- | --- | --- | --- | --- | --- | --- | --- | --- | --- | --- |
| CC1(C)CCC(CN2CCN(c3ccc(C(=O)NS(=O)(=O)c4ccc(NCC5CCOCC5)c([N+](=O)[O-])c4)c(Oc4cnc5[nH]ccc5c4)c3)CC2)=C(c2ccc(Cl)cc2)C1 + Cc1ccccc1N=Nc1ccc(NC(=O)c2ccnn2C)c(C)c1 | 5.20 | 5.19 | 5.25 | 5.24 | 5.14 | 102% | 94.5% | 94.1% | 94.3% | 95.2% | 19.1% | 98.7% | 104% | 100% | 96.8% | 87% | 79% | 90.9% | 95% | 86% | viability, T/C [10]: 89.5%; viability, T/C [11]: 92.9%; viability, T/C [12]: 24.5%; viability, T/C [15]: 107%; viability, T/C [16]: 91.1%; viability, T/C [17]: 78.5%; viability, T/C [18]: 22.2%; viability, T/C [21]: 82.9%; viability, T/C [22]: 107%; viability, T/C [23]: 75.4%; viability, T/C [24]: 26.8%; viability, T/C [27]: 96.2%; viability, T/C [28]: 76.2%; viability, T/C [29]: 83.3%; viability, T/C [30]: 37.7% |
| CC[C@@]1(O)C(=O)OCc2c1cc1n(c2=O)Cc2cc3c(CN(C)C)c(O)ccc3nc2-1 + Cc1ccccc1N=Nc1ccc(NC(=O)c2ccnn2C)c(C)c1 | < 7.00 | < 7.00 | < 7.00 | < 7.00 | < 7.00 | 88.5% | 60.3% |  |  |  |  | 77.2% | 66.6% |  | 78.9% | 61.2% | 61.1% | 51.1% | 57.1% | 60.2% | viability, T/C (second compound 0.1 µM, first compound 0.000316 µM): 94.9%; viability, T/C (second compound 0.1 µM, first compound 0.001 µM): 116%; viability, T/C (second compound 0.1 µM, first compound 0.00316 µM): 92.2%; viability, T/C (second compound 0.1 µM, first compound 0.01 µM): 96.2%; viability, T/C (second compound 0.316 µM, first compound 0.000316 µM): 97.8%; viability, T/C (second compound 0.316 µM, first compound 0.001 µM): 93.6%; viability, T/C (second compound 0.316 µM, first compound 0.00316 µM): 78.5%; viability, T/C (second compound 0.316 µM, first compound 0.01 µM): 93.6%; viability, T/C (second compound 1 µM, first compound 0.000316 µM): 93.9%; viability, T/C (second compound 1 µM, first compound 0.001 µM): 82.2%; viability, T/C (second compound 1 µM, first compound 0.00316 µM): 83.5%; viability, T/C (second compound 1 µM, first compound 0.01 µM): 82.2%; viability, T/C (second compound 3.16 µM, first compound 0.000316 µM): 84.4%; viability, T/C (second compound 3.16 µM, first compound 0.001 µM): 83.9%; viability, T/C (second compound 3.16 µM, first compound 0.00316 µM): 86.1%; viability, T/C (second compound 3.16 µM, first compound 0.01 µM): 72.6%; viability, T/C (second compound 10 µM, first compound 0.000316 µM): 72.9%; viability, T/C (second compound 10 µM, first compound 0.001 µM): 80.5%; viability, T/C (second compound 10 µM, first compound 0.00316 µM): 78.7%; viability, T/C (second compound 10 µM, first compound 0.01 µM): 63.9% |
| COc1cccc2c1C(=O)c1c(O)c3c(c(O)c1C2=O)CC(O)(C(=O)CO)CC3OC1CC(N)C(O)C(C)O1 (stereo not given) + Cc1ccccc1N=Nc1ccc(NC(=O)c2ccnn2C)c(C)c1 | 6.16 | 6.26 | 6.25 | 6.24 | 6.17 | 92.4% | 90% | 69.9% | 40.7% | 11.5% | 0.88% | 93.5% | 89.7% | 59.3% | 79.1% | 95.6% | 92.5% | 85.9% | 80.8% | 82.3% | viability, T/C [10]: 38.2%; viability, T/C [11]: 11.3%; viability, T/C [12]: 0.75%; viability, T/C [15]: 64.9%; viability, T/C [16]: 32.1%; viability, T/C [17]: 10.6%; viability, T/C [18]: 0.84%; viability, T/C [21]: 67.2%; viability, T/C [22]: 34.2%; viability, T/C [23]: 8.26%; viability, T/C [24]: 0.48%; viability, T/C [27]: 69.9%; viability, T/C [28]: 40.4%; viability, T/C [29]: 5.43%; viability, T/C [30]: 2.16% |
